For assay [1], the system named is S Opsin+ cells in the ventral retina. Kind of assay: S Opsin+ cell count in intact retinal explant cultures. In kind it is cell-based. The note with it: P11 mouse intact retina explants, 0.3 μM PR3, 3 DIV, vs DMSO. The text has this:
Scale bar represents 50 μm. E. PR3-treated retinas had more S Opsin+ cells per 100 μm×100 μm field in the ventral retina compared to DMSO-treated retinas (n=3, *p<0.05, Student's t-test).
FIG. 1E is a graph quantifying the effects of PR3 on S-opsin expression; treatment conditions were the same as those in FIG. 1D. S-opsin+ cones are predominantly present in the ventral retina of mice.
Mutations in Nr2e3 result in an increased number of S Opsin+ photoreceptors as well as a reduction in rod gene expression. To determine if PR3 treatment also affects cone gene expression, intact retinas were explanted from P11 wild type mice in media containing DMSO or PR3 for 3 days. Intact retinas were used for this experiment to assess changes in dorsal and ventral retina independently. After fixation and whole mount immunostaining, S Opsin+ cells were counted in the ventral retina.
Intact retinas without RPE from P11 C57Bl/6 mice were explanted on 0.4 μm pore tissue culture inserts in media (Neurobasal-A containing 1% FBS, 1% N2, 1% B27, 1% Pen/Strep, and 0.5% L-Glutamine) containing DMSO or 0.3 μM Photoregulin3. Full media changes were performed every other day. […] Cells were counted from single plane confocal images taken at fixed settings.

Assay [2] concerns the target T1, Nr2e3-NCOR dimer complex (Homo sapiens, UniProt Q9Y5X4).
T1 construct: expressed in transfected cells; host or cells: CHO-S cells
The note with it: PubChem Assay IDs 602229, 624378, 624394, 651849; cited from earlier work.

Assay [3] relates to Rhodopsin. In words: Rhodopsin protein expression (immunofluorescence assay) in dissociated retinal cell cultures. The assay is classed as cell-based. The note with it: P5 mouse dissociated retinal cultures, 2 days treatment, vs DMSO and PR1. An excerpt:
In order to identify compounds that may target Nr2e3 a cheminformatic strategy was used to screen hit compounds previously identified to interact with recombinant Nr2e3 in transfected CHO-S cells in a luciferase-based assay (PubChem Assay IDs: 602229, 624378, 624394, and 651849). As a secondary screen for initial hits, dissociated primary retinal cell cultures were used and assayed Rhodopsin, because it is a well-defined target of Nr2e3 signaling and is expressed at high levels exclusively in rod photoreceptors. Retina were dissociated from postnatal day 5 (P5) mice and cultured them in media containing the small molecules. After treatment for 2 days, the cells were collected for qPCR analysis and quantified Rhodopsin expression. […] This finding was confirmed with an immunofluorescence assay to examine Rhodopsin protein expression in dissociated retinal cultures from P5 mice.
Retinas were dissected from postnatal day 5 (P5) mice and dissociated by treatment with 0.5% Trypsin diluted in calcium- and magnesium-free HBSS from 10 minutes at 37° C. Trypsin was inactivated by adding an equal volume of FBS and cells were pelleted by centrifugation at 4° C. and resuspended in media (Neurobasal-A containing 1% FBS, 1% N2, 1% B27, 1% Pen/Strep, and 0.5% L-glutamine). For qPCR, cells were plated into 24-well tissue culture plates at a density of 1 retina/well (see qPCR section below). […]

The target of assay [4] is T2, Nr2e3 (Homo sapiens, UniProt Q9Y5X4).
T2 construct: Nr2e3 protein (aa 90-410) was expressed; His8 (N, cleaved yes); MBP (N, cleaved yes); host or cells: E. coli BL21 (DE3)
T2 sequence (Q9Y5X4 90-410): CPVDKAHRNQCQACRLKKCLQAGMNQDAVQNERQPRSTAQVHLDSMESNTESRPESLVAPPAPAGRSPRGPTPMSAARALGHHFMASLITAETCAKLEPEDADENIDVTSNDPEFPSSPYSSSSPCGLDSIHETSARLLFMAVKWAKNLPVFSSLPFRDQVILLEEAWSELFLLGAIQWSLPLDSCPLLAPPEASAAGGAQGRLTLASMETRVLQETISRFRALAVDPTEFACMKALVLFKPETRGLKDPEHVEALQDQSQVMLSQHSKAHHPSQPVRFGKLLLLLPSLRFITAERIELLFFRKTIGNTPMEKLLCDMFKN
Kind of assay: Isothermal titration calorimetry (ITC) of PR3 binding to Nr2e3. The note with it: one site model, estimated. As to the method:
FIG. 1F illustrates an isothermal titration calorimetric (ITC) study of PR3 binding to Nr2e3. Nr2e3 protein was expressed as a fusion protein from the expression vector pVP16. The fusion protein was incubated with TEV overnight at 4° C. and then the His8-MBP tags were separated from Nr2e3 by ion exchange chromatography. For isothermal titration calorimetry, […] was injected into […] in a MicroCal ITC-200 (Malvern).
To confirm a direct Nr2e3-PR3 interaction, isothermal titration calorimetry (ITC) was used.
Nr2e3 protein (aa 90-410) was expressed as a His8-MBP-TEV fusion protein from the expression vector pVP16 (DNASU Plasmid ID: HsCD00084154). E. coli BL21 (DE3) cells were grown to an OD600 of 1, and then induced with 0.2 mM IPTG at 16° C. overnight. Cells were harvested, resuspended in extract buffer (20 mM Tris pH 8, 200 mM NaCl, 10% glycerol, 5 mM 2-mercaptoethanol, and saturated PMSF diluted 1:1,000), and then lysed by sonication on ice. Lysates were centrifuged at 4° C. and the supernatant was loaded onto an equilibrated column containing 5 mL of Ni-NTA agarose (Qiagen). […] For isothermal titration calorimetry, 100 μM PR3 was injected into 20 μM Nr2e3 in 10 mM sodium phosphate buffer pH 8 with 50 mM NaCl and 0.5% DMSO in a MicroCal ITC-200 (Malvern) and the data was analyzed with Origin 7.0 software.

Entries after “also recorded” stand apart in the source; their conditions may differ.

T1 sequence (Q9Y5X4 whole entry, one chain of several): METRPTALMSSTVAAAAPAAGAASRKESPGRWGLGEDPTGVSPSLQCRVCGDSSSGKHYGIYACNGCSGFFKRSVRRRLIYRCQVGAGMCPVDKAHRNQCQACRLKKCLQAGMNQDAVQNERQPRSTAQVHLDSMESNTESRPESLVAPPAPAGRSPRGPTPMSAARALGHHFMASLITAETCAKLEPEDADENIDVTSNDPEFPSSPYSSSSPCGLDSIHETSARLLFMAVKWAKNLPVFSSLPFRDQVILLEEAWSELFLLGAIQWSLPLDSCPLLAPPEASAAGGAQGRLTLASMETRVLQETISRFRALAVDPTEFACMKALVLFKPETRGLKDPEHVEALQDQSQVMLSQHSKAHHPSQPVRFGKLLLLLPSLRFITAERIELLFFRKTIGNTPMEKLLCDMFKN

For `COc1cc2nc(CN3CC=C(c4ccccc4)CC3)nc(O)c2cc1OC` [PR3], the “S Opsin+ cells per 100 μm×100 μm field in the ventral retina” value in assay [1] is listed as “significantly more S Opsin+ cells per 100 μm×100 μm field in the ventral retina compared to DMSO-treated retinas; also recorded: increase in the number S Opsin+ cells in the ventral retina”. The “modulation of Nr2e3 in luciferase-based assay” value in assay [2] was “identified as a chemical modulator of Nr2e3”. Further, the Rhodopsin protein expression entry in assay [3] is “reduced expression of Rhodopsin compared to DMSO vehicle and PR1”. Moreover, the dissociation constant Kd (in general, the constant that tells how readily two partners part at equilibrium) in assay [4] was roughly 67 µM.

(Values after patent US20200368234A1, “PHOTORECEPTOR GENE MODULATOR PHOTOREGULIN 3 FOR TREATMENT OF RETINAL DISEASE” (University of Washington, priority 2017, published 2020).)
